From patent US12303509B2, “Compounds for the treatment of BRAF-associated diseases and disorders” (Pfizer Inc., priority 2020, dated 2025)
Structures can show the parent of a compound that is named as a salt.

Tests used:
BCRP = BCRP (Homo sapiens (Human), UniProt Q9UNQ0); experiment: BCRP MDCKII permeability assay: efflux ratio; format: in vitro ADME; details: dog
Experimental: BCRP transfected MDCKII cells were cultured and plated according to manufacturer's recommendations. Assay conditions included with and without the BCRP-specific inhibitor, KO143, at a concentration of 0.3 μM to ascertain the contribution of BCRP to the efflux value of the test compound.
Both positive and negative controls were used to assess functionality of P-gp or BCRP efflux in the assays. […] Final organic concentration in the assay was 1%. All dosing solutions contained 10 μM lucifer yellow to monitor LLC-PK1 or MDCKII cell monolayer integrity.
For the apical to basolateral determination (A to B), 75 μL of the test article in transport buffer were added to the apical side of the individual transwells and 250 μL of basolateral media, without compound or lucifer yellow, were added to each well. For the basolateral to apical determination (B to A), 250 μL of test article in transport buffer were added to each well and 75 μL transport buffer, without compound or lucifer yellow, were added to each transwell. All tests were performed in triplicate, and each compound was tested for both apical to basolateral and basolateral to apical transport. The plates were incubated for 2 hours on a Lab-Line Instruments Titer Orbital Shaker (VWR, West Chester, PA) at 50 rpm and 37° C. with 5% CO2. All culture plates were removed from the incubator and 50 μL of media were removed from the apical and basolateral portion of each well and added to 150 μL of 1 μM labetalol in 2:1 acetonitrile (acetonitrile): H2O, v/v.
These values were accepted when found to be below 2% for apical to basolateral and 5% basolateral to apical flux across the MDR1-transfected LLC-PK1 or BCRP-transfected MDCKII cell monolayers. The plates were sealed and the contents of each well analyzed by LC-MS/MS. The compound concentrations were determined from the ratio of the peak areas of the compound to the internal standard (labetalol) in comparison to the dosing solution.
The LC-MS/MS system was comprised of an HTS-PAL autosampler (Leap Technologies, Carrboro, NC), an HP1200 HPLC (Agilent, Palo Alto, CA), and a MDS Sciex 4000 Q Trap system (Applied Biosystems, Foster City, CA). […] The total run time, including re-equilibration, for a single injection was 1.2 minutes. Mass spectrometric detection of the analytes was accomplished using the ion spray positive mode.
An efflux ratio is calculated from the mean apical to basolateral (A-B) Papp data and basolateral to apical (B-A) Papp data using the following equation: Efflux ratio=Papp(B-A)/Papp(A-B)

[1] = molecular target: full-length FLAG-tagged B-Raf(V600E) (Homo sapiens (Human), UniProt P15056, V600E); experiment: BRAF V600E enzyme assay (TR-FRET competitive displacement); format: binding; details: averaged IC50; TR-FRET tracer displacement, 60 min
Method in brief: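 Displacement of 50 nM Tracer 1710 from 5 nM full-length N-terminally FLAG-tagged B-Raf(V600E), detected by TR-FRET with 0.5 nM Eu anti-FLAG antibody, in 25 mM HEPES pH 7.4, 10 mM MgCl2, 2% DMSO; 60 min at ~22 °C. Compounds 11-point, 3-fold from 10 μM; IC50 from 4-parameter fit at 50 POC.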

P-gp (MDR1) = P-gp (MDR1) (Homo sapiens (Human), UniProt P08183); experiment: MDR1 LLC-PK1 permeability assay: efflux ratio; format: in vitro ADME; details: pig
Text: (§1) Final organic concentration in the assay was 1%.

[2] = MDR1 LLC-PK1 and BCRP MDCKII permeability assay: permeability coefficient (Papp); format: in vitro ADME
Text: as §1

A375 cells = experiment: Cellular phospho-ERK inhibition assay in A375 cells; format: cell-based; details: Homo sapiens, A-375, A375 cells (head prints A357), 2 hours treatment, read-out: A357 cell IC50
Method in brief: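 A375 (DMEM) or H1755 (RPMI) cells in 10% FBS treated 2 h at 37 °C with 9-point series, 66 pM–10 μM, 0.25% DMSO. Phospho-ERK1/2 (Thr202/Tyr204) measured by In Cell Western, normalised to GAPDH and to DMSO and 10 μM binimetinib controls; IC50 by 4-parameter fit.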

H1755 cells = experiment: Cellular phospho-ERK inhibition assay in H1755 cells; format: cell-based; details: Homo sapiens, NCI-H1755, 2 hours treatment, read-out: H1755 Cell IC50
Experimental: A375 and H1755 cells were obtained from the American Type Culture Collection (ATCC, Rockville, MD). A375 cells were maintained in DMEM growth medium containing 10% FBS. H1755 cells were maintained in RPMI growth medium containing 10% FBS.
Cells were harvested according to standard protocols, counted and plated onto flat-bottom, 96-well tissue culture plates (Costar #3599) at 2.5×10^4 cells/well for A375 cells and 1.5×10^4 cells/well for H1755 cells in 100 μL/well of growth medium containing 10% FBS. After an overnight incubation at 37° C. with 5% CO2 cells were treated for 2 hours at 37° C., 5% CO2 with compounds prepared as a 9-point, 1:3.33 fold dilution series with final compound concentrations ranging from 66 pM-10 μM and a constant DMSO concentration of 0.25%. Control wells contained either 0.25% DMSO alone (uninhibited control) or 10 μM binimetinib (complete inhibition control). The levels of phosphorylated ERK are determined using an In Cell Western protocol: following compound incubation, growth medium was discarded, and cells were fixed with 0.4% formaldehyde in PBS for 20 minutes at room temperature. Cells were permeabilized with 100% methanol for 10 minutes at room temperature. Plates were washed with PBS containing 0.05% Tween-20 and blocked for 1 hour at room temperature with LI-COR Blocking Buffer (LI-COR Biosciences; Cat #927-40000). Plates were then incubated for 2 hours at room temperature with 50 μL of a 1:400 dilution of anti-phospho-ERK1/2 (Thr202/Tyr204) (Cell Signaling; Cat #9101) and a 1:1000 dilution of anti-GAPDH (Millipore; Cat #MAB374) in LI-COR blocking buffer containing 0.05% Tween-20. Plates were washed with PBS containing […] Tween-20 then incubated at room temperature for 1 hour with 50 μL of a 1:1000 dilution of anti-rabbit AlexaFluor 680 (Life Technologies; Cat #A21109) and a 1:1000 dilution of anti-mouse IRDye 800CW (LI-COR; Cat #926-32210) in LI-COR blocking buffer containing 0.05% Tween-20. Plates were analyzed by reading on an Odyssey CLx infrared scanner. For each well, the phospho-ERK signal was normalized to the GAPDH signal and converted to POC using the following equation:
[formula] • Where: • Xmax Average Uninhibited Controls • Xmin Average Complete Inhibition Controls IC50 values were then calculated using a 4-parameter fit in XLfit software and are provided in Table A1.

Sequence of full-length FLAG-tagged B-Raf(V600E) (P15056 whole entry V600E): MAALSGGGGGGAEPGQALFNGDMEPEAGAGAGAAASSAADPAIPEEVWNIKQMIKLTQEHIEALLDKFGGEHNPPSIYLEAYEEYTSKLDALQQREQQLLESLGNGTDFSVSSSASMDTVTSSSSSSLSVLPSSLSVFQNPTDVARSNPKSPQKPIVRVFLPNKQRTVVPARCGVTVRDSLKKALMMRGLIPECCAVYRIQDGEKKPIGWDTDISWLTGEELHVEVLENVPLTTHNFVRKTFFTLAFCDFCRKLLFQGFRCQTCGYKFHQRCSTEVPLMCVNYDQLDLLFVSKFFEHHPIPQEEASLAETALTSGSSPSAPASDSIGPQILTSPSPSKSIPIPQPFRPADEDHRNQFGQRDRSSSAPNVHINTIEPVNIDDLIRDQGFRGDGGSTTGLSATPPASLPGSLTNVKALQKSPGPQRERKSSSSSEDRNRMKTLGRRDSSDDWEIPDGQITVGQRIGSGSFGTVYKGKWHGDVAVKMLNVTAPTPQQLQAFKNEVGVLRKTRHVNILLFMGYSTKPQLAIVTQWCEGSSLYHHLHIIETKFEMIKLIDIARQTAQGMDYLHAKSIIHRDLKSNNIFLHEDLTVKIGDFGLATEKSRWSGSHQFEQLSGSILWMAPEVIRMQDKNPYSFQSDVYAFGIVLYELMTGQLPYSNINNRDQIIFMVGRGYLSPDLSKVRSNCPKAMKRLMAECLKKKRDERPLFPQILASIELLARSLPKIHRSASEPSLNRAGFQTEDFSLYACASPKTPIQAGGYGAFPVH
Sequence of P-gp (MDR1) (P08183 whole entry, species assumed): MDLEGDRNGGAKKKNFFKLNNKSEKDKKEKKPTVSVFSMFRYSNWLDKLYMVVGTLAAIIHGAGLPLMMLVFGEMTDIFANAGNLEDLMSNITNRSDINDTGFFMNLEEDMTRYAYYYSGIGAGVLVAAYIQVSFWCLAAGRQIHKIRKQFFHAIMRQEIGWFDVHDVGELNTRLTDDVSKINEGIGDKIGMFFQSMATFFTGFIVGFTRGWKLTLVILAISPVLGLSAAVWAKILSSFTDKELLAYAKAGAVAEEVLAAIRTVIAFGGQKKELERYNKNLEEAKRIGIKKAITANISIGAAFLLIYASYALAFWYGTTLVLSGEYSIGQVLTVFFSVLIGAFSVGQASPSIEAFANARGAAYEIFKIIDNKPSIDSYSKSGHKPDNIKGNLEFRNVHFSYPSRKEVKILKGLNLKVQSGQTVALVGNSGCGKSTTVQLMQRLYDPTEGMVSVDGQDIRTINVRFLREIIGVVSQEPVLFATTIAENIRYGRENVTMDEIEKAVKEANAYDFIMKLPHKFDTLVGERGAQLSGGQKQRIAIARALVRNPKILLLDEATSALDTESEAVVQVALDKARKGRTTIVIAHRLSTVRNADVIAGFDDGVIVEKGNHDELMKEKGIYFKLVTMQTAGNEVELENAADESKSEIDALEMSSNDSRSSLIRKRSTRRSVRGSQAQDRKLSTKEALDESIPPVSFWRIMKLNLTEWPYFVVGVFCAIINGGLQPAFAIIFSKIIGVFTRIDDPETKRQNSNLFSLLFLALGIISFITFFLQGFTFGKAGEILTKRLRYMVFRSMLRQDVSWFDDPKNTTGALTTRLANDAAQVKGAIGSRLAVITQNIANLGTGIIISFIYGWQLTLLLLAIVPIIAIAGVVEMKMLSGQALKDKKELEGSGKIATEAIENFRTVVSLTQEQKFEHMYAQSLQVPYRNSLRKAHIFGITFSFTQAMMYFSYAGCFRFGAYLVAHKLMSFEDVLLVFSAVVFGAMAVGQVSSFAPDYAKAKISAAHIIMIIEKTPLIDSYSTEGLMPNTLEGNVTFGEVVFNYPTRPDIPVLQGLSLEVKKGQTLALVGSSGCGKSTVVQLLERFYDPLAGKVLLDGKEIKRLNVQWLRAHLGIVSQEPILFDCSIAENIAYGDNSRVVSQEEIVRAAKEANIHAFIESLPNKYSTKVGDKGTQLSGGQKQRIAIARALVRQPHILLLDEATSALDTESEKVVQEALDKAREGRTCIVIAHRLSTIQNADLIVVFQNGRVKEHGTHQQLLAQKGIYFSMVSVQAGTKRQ
Sequence of BCRP (Q9UNQ0 whole entry): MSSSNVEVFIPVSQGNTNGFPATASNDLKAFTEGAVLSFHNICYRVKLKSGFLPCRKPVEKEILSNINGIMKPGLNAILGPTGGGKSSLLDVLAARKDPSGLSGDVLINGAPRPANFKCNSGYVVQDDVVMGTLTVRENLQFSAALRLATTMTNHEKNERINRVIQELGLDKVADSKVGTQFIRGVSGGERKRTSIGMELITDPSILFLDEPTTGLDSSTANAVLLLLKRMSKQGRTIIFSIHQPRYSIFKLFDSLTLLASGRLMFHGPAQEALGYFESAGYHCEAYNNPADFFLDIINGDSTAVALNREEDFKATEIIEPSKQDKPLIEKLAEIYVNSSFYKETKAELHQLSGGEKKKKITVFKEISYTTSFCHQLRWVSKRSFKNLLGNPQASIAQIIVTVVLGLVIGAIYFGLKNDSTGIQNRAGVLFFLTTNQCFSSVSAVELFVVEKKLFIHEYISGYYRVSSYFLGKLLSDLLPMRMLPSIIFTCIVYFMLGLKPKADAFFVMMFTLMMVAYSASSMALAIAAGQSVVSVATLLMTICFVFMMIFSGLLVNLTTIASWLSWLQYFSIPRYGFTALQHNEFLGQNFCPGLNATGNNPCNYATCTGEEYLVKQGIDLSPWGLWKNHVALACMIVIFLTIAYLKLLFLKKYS

Row | Compound | efflux ratio at 2 h, 1 µM (BCRP) | IC50 [1] [nM] | efflux ratio at 2 h, 1 µM (P-gp (MDR1)) | Papp at 2 h, 1 µM [2] [×10⁻⁶ cm/s] | IC50 (A375 cells) [nM] | IC50 (H1755 cells) [nM]
1 | Cn1cnc2ccc(Nc3c(F)ccc(NS(=O)(=O)N4CCCC4)c3Cl)c(C#N)c2c1=O [Example 50, N-(2-chloro-3-((5-cyano-3-methyl-4-oxo-3,4-dihydroquinazolin-6-yl)amino)-4-fluorophenyl)pyrrolidine-1-sulfonamide trifluoroacetate] | 6.3 | 2 | 5.3 | 26 | 1 | 20
2 | Cn1cnc2ccc(Nc3c(F)ccc(NS(=O)(=O)N4C[C@@H](F)[C@@H](F)C4)c3Cl)c(Cl)c2c1=O [Example 22, cis-N-(2-chloro-3-((5-chloro-3-methyl-4-oxo-3,4-dihydroquinazolin-6-yl)amino)-4-fluorophenyl)-3,4-difluoropyrrolidine-1-sulfonamide] | 5.6 | 3 | 2.7 | 34 | 15 | 52
3 | CO[C@@H]1CCN(S(=O)(=O)Nc2cc(F)cc(Nc3ccc4ncn(C)c(=O)c4c3C)c2Cl)C1 [Example 152, (R)-N-(2-chloro-3-((3,5-dimethyl-4-oxo-3,4-dihydroquinazolin-6-yl)amino)-5-fluorophenyl)-3-methoxypyrrolidine-1-sulfonamide] | 1.4 | 29 | 1.3 | 37 | 305 | 329
4 | CO[C@@H]1CCN(S(=O)(=O)Nc2cc(F)c(F)c(Nc3ccc4ncn(C)c(=O)c4c3F)c2Cl)C1 [Example 47, (R)-N-(2-chloro-4,5-difluoro-3-((5-fluoro-3-methyl-4-oxo-3,4-dihydroquinazolin-6-yl)amino)phenyl)-3-methoxypyrrolidine-1-sulfonamide trifluoroacetate] | 2.5 | 2 | 3.6 | 26 | 2 | 23
5 | Cc1c(Nc2c(F)ccc(NS(=O)(=O)N3CC[C@H](F)C3)c2Cl)ccc2ncn(C)c(=O)c12 [Example 86, (S)-N-(2-chloro-3-((3,5-dimethyl-4-oxo-3,4-dihydroquinazolin-6-yl)amino)-4-fluorophenyl)-3-fluoropyrrolidine-1-sulfonamide trifluoroacetate] | 1.6 | 42 | 1.9 | 28 | 34 | 182
6 | Cn1cnc2ccc(Nc3c(F)ccc(NS(=O)(=O)N4C[C@@H](F)[C@@H](F)C4)c3Cl)c(F)c2c1=O [Example 21, cis-N-(2-chloro-4-fluoro-3-((5-fluoro-3-methyl-4-oxo-3,4-dihydroquinazolin-6-yl)amino)phenyl)-3,4-difluoropyrrolidine-1-sulfonamide] | 13 | 3 | 5.6 | 26 | 7 | 33
7 | Cn1cnc2ccc(Nc3cc(Cl)cc(NS(=O)(=O)N4CC[C@@H](F)C4)c3F)c(F)c2c1=O [Example 58, (R)-N-(5-chloro-2-fluoro-3-((5-fluoro-3-methyl-4-oxo-3,4-dihydroquinazolin-6-yl)amino)phenyl)-3-fluoropyrrolidine-1-sulfonamide trifluoroacetate] | 7.3 | 3 | 5.3 | 27 | 6 | 32
8 | Cn1cnc2ccc(Nc3c(F)ccc(NS(=O)(=O)N4CC[C@H](F)C4)c3Cl)c(Cl)c2c1=O [Example 28, (S)-N-(2-chloro-3-((5-chloro-3-methyl-4-oxo-3,4-dihydroquinazolin-6-yl)amino)-4-fluorophenyl)-3-fluoropyrrolidine-1-sulfonamide] | 1.7 | 4 | 2 | 37 | 7 | 38
9 | Cn1cnc2ccc(Nc3c(F)ccc(NS(=O)(=O)N4CCC(F)(F)C4)c3Cl)c(F)c2c1=O [Example 23, N-(2-chloro-4-fluoro-3-((5-fluoro-3-methyl-4-oxo-3,4-dihydroquinazolin-6-yl)amino)phenyl)-3,3-difluoropyrrolidine-1-sulfonamide] | 17.6 | 3 | 3 | 24 | 6 | 29
10 | Cc1c(Nc2c(F)c(F)cc(NS(=O)(=O)N3C[C@@H](F)[C@@H](F)C3)c2Cl)ccc2ncn(C)c(=O)c12 [Example 95, cis-N-(2-chloro-3-((3,5-dimethyl-4-oxo-3,4-dihydroquinazolin-6-yl)amino)-4,5-difluorophenyl)-3,4-difluoropyrrolidine-1-sulfonamide] | 6.8 | 2 | 2.7 | 25 | 111 | 796
11 | Cn1cnc2ccc(Oc3c(F)ccc(NS(=O)(=O)N4CCCC4)c3Cl)c(Cl)c2c1=O [Example 39, N-(2-chloro-3-((5-chloro-3-methyl-4-oxo-3,4-dihydroquinazolin-6-yl)oxy)-4-fluorophenyl)pyrrolidine-1-sulfonamide] | 0.9 | 3 | 1.3 | 23 | 8 | 55
12 | CN(C)S(=O)(=O)Nc1ccc(F)c(Nc2ccc3ncn(C)c(=O)c3c2Cl)c1Cl [Example 3, N-(2-chloro-3-((5-chloro-3-methyl-4-oxo-3,4-dihydroquinazolin-6-yl)amino)-4-fluorophenyl)-(N,N-dimethyl)-sulfamide] | 1.5 | 30 | 1.3 | 33 | 16 | 61
13 | CO[C@@H]1CCN(S(=O)(=O)Nc2cc(F)c(F)c(Nc3ccc4ncn(C)c(=O)c4c3Cl)c2F)C1 [Example 34, (R)-N-(3-((5-chloro-3-methyl-4-oxo-3,4-dihydroquinazolin-6-yl)amino)-2,4,5-trifluorophenyl)-3-methoxypyrrolidine-1-sulfonamide] | 2.6 | 4 | 2.9 | 30 | 4 | 54
14 | Cc1c(Nc2c(F)ccc(NS(=O)(=O)N3CC[C@@H](OC(F)F)C3)c2Cl)ccc2ncn(C)c(=O)c12 [Example 89] | 1 | 14 | 1.3 | 21 | 50 | 173
15 | Cn1cnc2ccc(Nc3c(F)ccc(NS(=O)(=O)N4CCC(F)(F)C4)c3Cl)c(Cl)c2c1=O [Example 25, N-(2-chloro-3-((5-chloro-3-methyl-4-oxo-3,4-dihydroquinazolin-6-yl)amino)-4-fluorophenyl)-3,3-difluoropyrrolidine-1-sulfonamide trifluoroacetate] | 2.4 | 2 | 1.6 | 30 | 16 | 94
